ChEMBL document CHEMBL4266023, “NMR-Based Investigation of Hydrogen Bonding in a Dihydroanthracen-1(4 H)one from Rubia philippinensis and Its Soluble Epoxide Hydrolase Inhibitory Potential” (J Nat Prod, 2018)
pIC50: −log10 of the molar value.

Target: T1, Bifunctional epoxide hydrolase 2 (Homo sapiens, UniProt P34913)
T1 sequence (P34913 whole entry): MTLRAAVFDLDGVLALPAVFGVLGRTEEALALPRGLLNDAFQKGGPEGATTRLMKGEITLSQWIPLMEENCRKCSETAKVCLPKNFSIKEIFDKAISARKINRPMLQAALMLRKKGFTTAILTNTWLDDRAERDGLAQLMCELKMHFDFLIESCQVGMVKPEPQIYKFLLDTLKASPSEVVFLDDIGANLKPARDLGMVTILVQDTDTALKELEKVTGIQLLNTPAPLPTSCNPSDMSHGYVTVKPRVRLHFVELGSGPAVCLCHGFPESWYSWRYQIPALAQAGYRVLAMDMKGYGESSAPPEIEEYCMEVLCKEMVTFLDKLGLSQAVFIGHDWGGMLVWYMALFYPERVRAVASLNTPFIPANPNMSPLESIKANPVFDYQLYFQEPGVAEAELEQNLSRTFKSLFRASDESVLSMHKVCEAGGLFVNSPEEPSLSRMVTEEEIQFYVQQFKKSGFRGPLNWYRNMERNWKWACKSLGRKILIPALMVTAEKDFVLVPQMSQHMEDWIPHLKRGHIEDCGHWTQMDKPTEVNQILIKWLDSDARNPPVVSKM
Test: Inhibition of soluble epoxide hydrolase (unknown origin) using NEPC as substrate after 1 hr by fluorescence assay

Row | pIC50 | Compound
1 | 5.96 | CC1=CC[C@@H]2C(=C(O)c3ccccc3[C@@H]2O)C1=O
2 | 6.52 | Cc1ccc2c(O[C@@H]3O[C@H](CO)[C@@H](O)[C@H](O)[C@H]3O)c3ccccc3c(O[C@@H]3O[C@H](CO)[C@@H](O)[C@H](O)[C@H]3O)c2c1
